Measured values: the NIST ThermoML archive (doi:10.1016/j.jct.2010.10.018)

Assay: xn = mol fraction of the nth substance listed
Conditions: 101 kPa, Liquid, Vibrating tube method

CC(C)(C)O [2-methylpropan-2-ol] + O
Conditions	mass density [kg/m3]
274.15 K, x1 = 0.00089	999.21
274.15 K, x1 = 0.00146	998.81
274.15 K, x1 = 0.00269	997.91
274.15 K, x1 = 0.00403	997.02
274.15 K, x1 = 0.00513	996.3
274.15 K, x1 = 0.00761	994.82
274.15 K, x1 = 0.01051	993.19
274.15 K, x1 = 0.01405	991.42
274.15 K, x1 = 0.01793	989.78
274.15 K, x1 = 0.02241	988.11
274.15 K, x1 = 0.03005	985.71
274.15 K, x1 = 0.04242	982.79
274.15 K, x1 = 0.08929	966.2
275.15 K, x1 = 0.00089	999.25
275.15 K, x1 = 0.00146	998.85
275.15 K, x1 = 0.00269	997.96
275.15 K, x1 = 0.00403	997.06
275.15 K, x1 = 0.00513	996.34
275.15 K, x1 = 0.00761	994.84
275.15 K, x1 = 0.01051	993.21
275.15 K, x1 = 0.01405	991.44
275.15 K, x1 = 0.01793	989.78
275.15 K, x1 = 0.02241	988.08
275.15 K, x1 = 0.03005	985.63
275.15 K, x1 = 0.04242	982.59
275.15 K, x1 = 0.08929	965.24
276.15 K, x1 = 0.00089	999.28
276.15 K, x1 = 0.00146	998.89
276.15 K, x1 = 0.00269	997.99
276.15 K, x1 = 0.00403	997.09
276.15 K, x1 = 0.00513	996.36
276.15 K, x1 = 0.00761	994.86
276.15 K, x1 = 0.01051	993.23
276.15 K, x1 = 0.01405	991.43
276.15 K, x1 = 0.01793	989.76
276.15 K, x1 = 0.02241	988.02
276.15 K, x1 = 0.03005	985.53
276.15 K, x1 = 0.04242	982.37
276.15 K, x1 = 0.08929	964.42
277.15 K, x1 = 0.00089	999.29
277.15 K, x1 = 0.00146	998.9
277.15 K, x1 = 0.00269	998.01
277.15 K, x1 = 0.00403	997.1
277.15 K, x1 = 0.00513	996.37
277.15 K, x1 = 0.00761	994.85
277.15 K, x1 = 0.01405	991.42
278.15 K, x1 = 0.00089	999.28
278.15 K, x1 = 0.00146	998.89
278.15 K, x1 = 0.00269	998.01
278.15 K, x1 = 0.00403	997.1
278.15 K, x1 = 0.00513	996.37
278.15 K, x1 = 0.00761	994.85
278.15 K, x1 = 0.01051	993.21
278.15 K, x1 = 0.01405	991.41
278.15 K, x1 = 0.01793	989.68
278.15 K, x1 = 0.02241	987.87
278.15 K, x1 = 0.0248	986.88
278.15 K, x1 = 0.03005	985.29
278.15 K, x1 = 0.03494	983.86
278.15 K, x1 = 0.04241	981.87
278.15 K, x1 = 0.04242	981.89
278.15 K, x1 = 0.05218	979.23
278.15 K, x1 = 0.05887	977
278.15 K, x1 = 0.06973	972.66
278.15 K, x1 = 0.08929	962.87
278.15 K, x1 = 0.1125	951.21
278.15 K, x1 = 0.1566	929.91
278.15 K, x1 = 0.208	910.57
278.15 K, x1 = 0.2408	899.29
278.15 K, x1 = 0.3023	882.17
278.15 K, x1 = 0.3451	872.16
278.15 K, x1 = 0.4045	860.22
278.15 K, x1 = 0.4225	857.05
278.15 K, x1 = 0.4653	849.9
278.15 K, x1 = 0.5344	839.61
278.15 K, x1 = 0.6029	831.08
278.15 K, x1 = 0.6909	821.72
278.15 K, x1 = 0.726	818.36
278.15 K, x1 = 0.7999	812.56
279.15 K, x1 = 0.00089	999.26
279.15 K, x1 = 0.00146	998.87
279.15 K, x1 = 0.00269	997.99
279.15 K, x1 = 0.00403	997.08
279.15 K, x1 = 0.00513	996.35
279.15 K, x1 = 0.00761	994.79
279.15 K, x1 = 0.01405	991.37
280.15 K, x1 = 0.00089	999.22
280.15 K, x1 = 0.00146	998.83
280.15 K, x1 = 0.00269	997.95
280.15 K, x1 = 0.00403	997.04
280.15 K, x1 = 0.00513	996.31
280.15 K, x1 = 0.00761	994.76
280.15 K, x1 = 0.01051	993.13
280.15 K, x1 = 0.01405	991.32
280.15 K, x1 = 0.01793	989.57
280.15 K, x1 = 0.02241	987.69
280.15 K, x1 = 0.03005	985
280.15 K, x1 = 0.04242	981.35
280.15 K, x1 = 0.08929	961.26
281.15 K, x1 = 0.00089	999.17
281.15 K, x1 = 0.00146	998.78
281.15 K, x1 = 0.00269	997.9
281.15 K, x1 = 0.00403	996.99
281.15 K, x1 = 0.00513	996.26
281.15 K, x1 = 0.00761	994.7
281.15 K, x1 = 0.01405	991.25
282.15 K, x1 = 0.00089	999.1
282.15 K, x1 = 0.00146	998.72
282.15 K, x1 = 0.00269	997.84
282.15 K, x1 = 0.00403	996.93
282.15 K, x1 = 0.00513	996.19
282.15 K, x1 = 0.00761	994.63
282.15 K, x1 = 0.01405	991.16
283.15 K, x1 = 0.00089	999.02
283.15 K, x1 = 0.00146	998.63
283.15 K, x1 = 0.00269	997.76
283.15 K, x1 = 0.00403	996.85
283.15 K, x1 = 0.00513	996.12
283.15 K, x1 = 0.00761	994.57
283.15 K, x1 = 0.01405	991.06
288.15 K, x1 = 0.00089	998.43
288.15 K, x1 = 0.00146	998.04
288.15 K, x1 = 0.00269	997.17
288.15 K, x1 = 0.00403	996.26
288.15 K, x1 = 0.00513	995.52
288.15 K, x1 = 0.00761	993.96
288.15 K, x1 = 0.01405	990.35
288.15 K, x1 = 0.0248	985.26
288.15 K, x1 = 0.03494	981.48
288.15 K, x1 = 0.04241	978.77
288.15 K, x1 = 0.05218	974.85
288.15 K, x1 = 0.05887	971.81
288.15 K, x1 = 0.06973	966.34
288.15 K, x1 = 0.1125	943.7
288.15 K, x1 = 0.1566	922.09
288.15 K, x1 = 0.208	902.66
288.15 K, x1 = 0.2408	891.25
288.15 K, x1 = 0.3023	874
288.15 K, x1 = 0.3451	863.89
288.15 K, x1 = 0.4045	851.78
288.15 K, x1 = 0.4225	848.63
288.15 K, x1 = 0.4653	841.48
288.15 K, x1 = 0.5344	830.98
288.15 K, x1 = 0.6029	822.27
288.15 K, x1 = 0.6909	812.77
288.15 K, x1 = 0.726	809.38
288.15 K, x1 = 0.7999	803.46
288.15 K, x1 = 0.8711	797.8
288.15 K, x1 = 0.9183	794.66
298.15 K, x1 = 0.00089	996.39
298.15 K, x1 = 0.00146	996
298.15 K, x1 = 0.00269	995.11
298.15 K, x1 = 0.00403	994.19
298.15 K, x1 = 0.00513	993.44
298.15 K, x1 = 0.00761	991.84
298.15 K, x1 = 0.01405	988.08
298.15 K, x1 = 0.0248	982.45
298.15 K, x1 = 0.03494	977.97
298.15 K, x1 = 0.04241	974.54
298.15 K, x1 = 0.05218	969.58
298.15 K, x1 = 0.05887	965.94
298.15 K, x1 = 0.06973	959.94
298.15 K, x1 = 0.1125	936.18
298.15 K, x1 = 0.1566	914.18
298.15 K, x1 = 0.208	894.55
298.15 K, x1 = 0.2408	883.06
298.15 K, x1 = 0.3023	865.6
298.15 K, x1 = 0.3451	855.48
298.15 K, x1 = 0.4045	843.11
298.15 K, x1 = 0.4225	839.94
298.15 K, x1 = 0.4653	832.83
298.15 K, x1 = 0.5344	822.05
